Results from patent US11560385B2, “Proteasome activity enhancing compounds” (Proteostasis Therapeutics, Inc., priority 2018, dated 2023).

target: USP14 (Homo sapiens (Human), UniProt P54578); assay: Usp14 inhibition assay (Example 57B, B-series compounds); assay type: biochemical; details: IC50 class; average value from a minimum of two experimental determinations
Source text: Example 57B: Usp14 Inhibition Assay
The IC50 values in the Table below represent the average value from a minimum of two experimental determinations.

Sequence of USP14 (P54578 whole entry, looked up): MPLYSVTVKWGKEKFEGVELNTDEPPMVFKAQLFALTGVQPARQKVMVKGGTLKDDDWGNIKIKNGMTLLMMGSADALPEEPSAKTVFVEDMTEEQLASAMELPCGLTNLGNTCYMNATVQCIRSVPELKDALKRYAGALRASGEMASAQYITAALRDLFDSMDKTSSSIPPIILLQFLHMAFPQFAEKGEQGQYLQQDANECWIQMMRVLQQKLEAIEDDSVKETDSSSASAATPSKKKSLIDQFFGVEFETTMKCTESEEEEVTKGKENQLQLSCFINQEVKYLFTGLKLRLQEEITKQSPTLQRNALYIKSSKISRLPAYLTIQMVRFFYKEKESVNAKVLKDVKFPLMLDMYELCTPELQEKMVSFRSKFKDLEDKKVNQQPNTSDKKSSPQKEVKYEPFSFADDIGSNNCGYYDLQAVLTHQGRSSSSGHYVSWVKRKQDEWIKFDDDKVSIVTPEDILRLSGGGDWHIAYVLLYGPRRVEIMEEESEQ

Compound | IC50
Cc1c(F)c(C(=O)CN2[C@@H]3C=C(C(F)(F)F)[C@H]2CC3)c(C)n1-c1ccc(C#N)cc1 (racemic) [Example 149B, (±)-4-(3-Fluoro-2,5-dimethyl-4-(2-((1R,4S)-2-(trifluoromethyl)-7-azabicyclo[2.2.1]hept-2-en-7-yl)acetyl)-1H-pyrrol-1-yl)benzonitrile] | 50 to 500 nM
Cc1c(C(=O)CN2C3CCC2C(O)C3)cc([C@@H](C)C2CCC2)n1-c1ccc(C#N)cc1 (mixture of isomers) [Example 150B, (±)-4-(5-((S)-1-Cyclobutylethyl)-3-(2-((2R)-2-hydroxy-7-azabicyclo[2.2.1]heptan-7-yl)acetyl)-2-methyl-1H-pyrrol-1-yl)benzonitrile] | 50 to 500 nM
Cc1c(C(=O)CN2C3CCC2[C@@H](O)C3)cc(/C=C/CN2C(=O)c3ccccc3C2=O)n1-c1ccc(C#N)cc1 (mixture of isomers) [Example 153B, (±)-4-(5-0E)-3-(1,3-Dioxoisoindolin-2-yl)prop-1-en-1-yl)-3-(2-((1R,2R,4S)-2-hydroxy-7-azabicyclo[2.2.1]heptan-7-yl)acetyl)-2-methyl-1H-pyrrol-1-yl)benzonitrile] | < 50 nM
Cc1c(C(=O)CN2C3CCC2[C@@H](O)C3)cc(CCCOC(F)(F)F)n1-c1ccc(C#N)cc1 (mixture of isomers) [Example 155B, (±)-4-(3-(2-((1R,2R,4R)-2-Hydroxy-7-azabicyclo[2.2.1]heptan-7-yl(acetyl)-2-methyl-5-(3-(trifluoromethoxy)propyl)-1H-pyrrol-1-yl)benzonitrile] | 50 to 500 nM
Cc1c(C(=O)CN2[C@@H]3CC[C@@H]2[C@@H](O)C3)cc(/C=C/CN)n1-c1ccc(C#N)cc1 (racemic) [Example 156B, (±)-4-(5-((E)-3-Aminoprop-1-en-1-yl)-3-(2-((1S,2R,4S)-2-hydroxy-7-azabicyclo[2.2.1]heptan-7-yl)acetyl)-2-methyl-1H-pyrrol-1-yl)benzonitrile] | < 50 nM
Cc1c(C(=O)CN2[C@H]3CC[C@@H]2[C@@H](O)C3)cc(CC2(Cl)CCC2)n1-c1ccc(C#N)cc1 (racemic) [Example 157B, (±)-4-(5-((1-Chlorocyclobutyl)methyl)-3-(2-((1S,2R,4R)-2-hydroxy-7-azabicyclo[2.2.1]heptan-7-yl)acetyl)-2-methyl-1H-pyrrol-1-yl)benzonitrile] | 50 to 500 nM
Cc1c(C(=O)CN2[C@H]3CC[C@@H]2[C@@H](O)C3)cc(CC23CC(C2)C3)n1-c1ccc(C#N)cc1 (racemic) [Example 158B, (±)-4-(5-(Bicyclo[1.1.1]pentan-1-ylmethyl)-3-(2-((1R,2S,4S)-2-hydroxy-7-azabicyclo[2.2.1]heptan-7-yl)acetyl)-2-methyl-1H-pyrrol-1-yl)benzonitrile] | > 500 nM
COCCCCc1cc(C(=O)CN2[C@@H]3CC[C@H]2[C@@H](O)C3)c(C)n1-c1ccc(C#N)cc1 (stereo in doubt) [Example 12B, (rel)-4-(3-(2-((1R,2R,4S)-2-Hydroxy-7-azabicyclo[2.2.1]heptan-7-yl)acetyl)-5-(4-methoxybutyl)-2-methyl-1H-pyrrol-1-yl)benzonitrile] | < 50 nM
COCCCCc1cc(C(=O)CN2[C@H]3CC[C@@H]2[C@H](O)C3)c(C)n1-c1ccc(C#N)cc1 (stereo in doubt) [Example 13B, (rel)-4-(3-(2-((1S,2S,4R)-2-Hydroxy-7-azabicyclo[2.2.1]heptan-7-yl)acetyl)-5-(4-methoxybutyl)-2-methyl-1H-pyrrol-1-yl)benzonitrile] | < 50 nM
Cc1c(C(=O)CN2C3CCC2C(O)C3)cc([C@H](C)C2CCC2)n1-c1ccc(C#N)cc1 (stereo in doubt) [Example 151B, 4-(5-((R)-1-Cyclobutylethyl)-3-(2-((2R)-2-hydroxy-7-azabicyclo[2.2.1]heptan-7-yl)acetyl)-2-methyl-1H-pyrrol-1-yl)benzonitrile] | > 500 nM
Cc1c(C(=O)CN2C3CCC2CC3)c(C)n(-c2ccc(C#N)cc2)c1CCCCS(C)(=O)=O [Example 1B, 4-(3-(2-(7-Azabicyclo[2.2.1]heptan-7-yl)acetyl)-2,4-dimethyl-5-(4-(methylsulfonyl)butyl)-1H-pyrrol-1-yl)benzonitrile] | > 500 nM
Cc1c(C(=O)CN2[C@@H]3CC[C@@H]2CC(O)C3)cc(CCCCS(C)(=O)=O)n1-c1ccc(C#N)cc1 (stereo partly drawn) [Example 7B, 4-(3-(2-((1R,3r,5S)-3-Hydroxy-8-azabicyclo[3.2.1]octan-8-yl)acetyl)-2-methyl-5-(4-(methylsulfonyl)butyl)-1H-pyrrol-1-yl)benzonitrile] | < 50 nM
Cc1c(C(=O)CN2C3CCC2CC3)c(C)n(-c2ccc(C#N)cc2)c1-c1ccc(C#N)cc1 [Example 16B, 4,4′-(4-(2-(7-Azabicyclo[2.2.1]heptan-7-yl)acetyl)-3,5-dimethyl-1H-pyrrole-1,2-diyl)dibenzonitrile] | > 500 nM
Cc1c(C(=O)CN2C3CCC2CC3)cc(CCCCS(C)(=O)=O)n1-c1ccc(Cl)cc1 [Example 18B, 2-(7-Azabicyclo[2.2.1]heptan-7-yl)-1-(1-(4-chlorophenyl)-2-methyl-5-(4-(methylsulfonyl)butyl)-1H-pyrrol-3-yl)ethan-1-one] | 50 to 500 nM
Cc1c(C(=O)CN2C3CC4CC2CC(C3)O4)cc(C#CCCC#N)n1-c1ccc(C#N)cc1 [Example 21B, 4-(3-(2-((1r,3r,5r,7r)-2-Oxa-6-azaadamantan-6-yl)acetyl)-5-(4-cyanobut-1-yn-1-yl)-2-methyl-1H-pyrrol-1-yl)benzonitrile] | 50 to 500 nM
Cc1c(C(=O)CN2C3CCC2CC3)cc(CC2CCS(=O)(=O)CC2)n1-c1ccc(Cl)cc1 [Example 25B, 2-(7-Azabicyclo[2.2.1]heptan-7-yl)-1-(1-(4-chlorophenyl)-5-((1,1-dioxidotetrahydro-2H-thiopyran-4-yl)methyl)-2-methyl-1H-pyrrol-3-yl)ethan-1-one] | 50 to 500 nM

Compound | IC50
Cc1c(C(=O)CN2C3CCC2CC3)cc(/C=C\CCS(C)(=O)=O)n1-c1ccc(C#N)cc1 [Example 26B] | < 50 nM
Cc1c(C(=O)CN2C3CCC2CC3)cc(CCCCS(C)(=O)=O)n1-c1ccc(C#N)cc1 [Example 30B, 4-(3-(2-(7-Azabicyclo[2.2.1]heptan-7-yl)acetyl)-2-methyl-5-(4-(methylsulfonyl)butyl)-1H-pyrrol-1-yl)benzonitrile] | < 50 nM
Cc1c(C(=O)CN2C3CCC2CC3)cc(CCCCC#N)n1-c1ccc(Cl)cc1 [Example 31B, 5-(4-(2-(7-Azabicyclo[2.2.1]heptan-7-yl)acetyl)-1-(4-chlorophenyl)-5-methyl-1H-pyrrol-2-yl)pentanenitrile] | 50 to 500 nM
Cc1c(C(=O)CN2C3CCC2CC3)c(C)n(-c2ccc(C#N)cc2)c1/C=C/CCS(C)(=O)=O [Example 32B, (E)-4-(3-(2-(7-Azabicyclo[2.2.1]heptan-7-yl)acetyl)-2,4-dimethyl-5-(4-(methylsulfonyl)but-1-en-1-yl)-1H-pyrrol-1-yl)benzonitrile] | 50 to 500 nM
Cc1c(C(=O)CN2C3CCC2CC3)cc(/C=C/CCS(C)(=O)=O)n1-c1ccc(Cl)cc1 [Example 34B, (E)-2-(7-Azabicyclo[2.2.1]heptan-7-yl)-1-(1-(4-chlorophenyl)-2-methyl-5-(4-(methylsulfonyl)but-1-en-1-yl)-1H-pyrrol-3-yl)ethan-1-one] | < 50 nM
Cc1c(C(=O)CN2C3CCC2CC3)cc(/C=C/CCS(C)(=O)=O)n1-c1ccc(C#N)cc1 [Example 35B, (E)-4-(3-(2-(7-Azabicyclo[2.2.1]heptan-7-yl)acetyl)-2-methyl-5-(4-(methylsulfonyl)but-1-en-1-yl)-1H-pyrrol-1-yl)benzonitrile] | < 50 nM
Cc1c(C(=O)CN2C3CCC2CC3)cc(CC2COC2)n1-c1ccc(C#N)cc1 [Example 54B, 4-(3-(2-(7-Azabicyclo[2.2.1]heptan-7-yl)acetyl)-2-methyl-5-(oxetan-3-ylmethyl)-1H-pyrrol-1-yl)benzonitrile] | < 50 nM
Cc1cc(C(=O)CN2C3CCC2CC3)c(C)n1-c1ccc(C#N)cc1 [Example 63B, 4-(3-(2-(7-Azabicyclo[2.2.1]heptan-7-yl)acetyl)-2,5-dimethyl-1H-pyrrol-1-yl)benzonitrile] | > 500 nM
Cc1cc(C(=O)CN2[C@@H]3CC[C@@H]2CC(O)C3)c(C)n1-c1ccc(C#N)cc1 (stereo partly drawn) [Example 66B, 4-(3-(2-((1R,3r,5S)-3-Hydroxy-8-azabicyclo[3.2.1]octan-8-yl)acetyl)-2,5-dimethyl-1H-pyrrol-1-yl)benzonitrile] | 50 to 500 nM
Cc1cc(C(=O)CN2[C@@H]3CC[C@@H]2CC(O)C3)c(C)n1-c1ccc(C#N)cc1 (stereo partly drawn) [Example 67B, 4-(3-(2-((1R,3s,5S)-3-hydroxy-8-azabicyclo[3.2.1]octan-8-yl)acetyl)-2,5-dimethyl-1H-pyrrol-1-yl)benzonitrile] | 50 to 500 nM
Cc1cc(C(=O)CN2[C@@H]3CC[C@@H]2CC(C)(O)C3)c(C)n1-c1ccc(C#N)cc1 (stereo partly drawn) [Example 68B, 4-(3-(2-((1R,3r,5S)-3-Hydroxy-3-methyl-8-azabicyclo[3.2.1]octan-8-yl)acetyl)-2,5-dimethyl-1H-pyrrol-1-yl)benzonitrile] | 50 to 500 nM
Cc1cc(C(=O)CN2C3CCCC2CC3)c(C)n1-c1ccc(C#N)cc1 [Example 69B, 4-(3-(2-(8-Azabicyclo[3.2.1]octan-8-yl)acetyl)-2,5-dimethyl-1H-pyrrol-1-yl)benzonitrile] | 50 to 500 nM
Cc1cc(C(=O)CN2[C@@H]3CC[C@@H]2CC(O)(C(F)(F)F)C3)c(C)n1-c1ccc(C#N)cc1 (stereo partly drawn) [Example 74B, 4-(3-(2-((1R,3r,5S)-3-Hydroxy-3-(trifluoromethyl)-8-azabicyclo[3.2.1]octan-8-yl)acetyl)-2,5-dimethyl-1H-pyrrol-1-yl)benzonitrile] | > 500 nM
Cc1cc(C(=O)CN2[C@@H]3CC[C@@H]2CC(O)(C(F)(F)F)C3)c(C)n1-c1ccc(C#N)cc1 (stereo partly drawn) [Example 75B, 4-(3-(2-((1R,3s,5S)-3-Hydroxy-3-(trifluoromethyl)-8-azabicyclo[3.2.1]octan-8-yl)acetyl)-2,5-dimethyl-1H-pyrrol-1-yl)benzonitrile] | 50 to 500 nM
Cc1cc(C(=O)CN2C3CC4CC(C3)CC2C4)c(C)n1-c1ccc(C#N)cc1 [Example 80B, 4-(3-(2-((5r,7r)-2-Azaadamantan-2-yl)acetyl)-2,5-dimethyl-1H-pyrrol-1-yl)benzonitrile] | < 50 nM
